Among the data in patent publication US20230365554A1, “SUBSTITUTED PYRROLO-PYRIDINONE DERIVATIVES AND THERAPEUTIC USES THEREOF” (The Broad Institute, Inc., priority 2020, published 2023) are IC50 values, retold here.

“And” between values parts separate entries of the source, which are not always exact repeats. Identical values can stand only once. A value given as a limit tells only on which side of the number the result lay.

This assay deals with wild-type Epidermal Growth Factor Receptor (EGFR) (Homo sapiens (Human), UniProt P00533). Briefly: WT-EGFR kinase assay (TR-FRET, 2 mM ATP). The note with it: median or individual measurements, Table 3, read-out: EGFR Wildtyp-2mM ATP IC50 [mol/l] (median). Format: biochemical. From the text: Inhibitory activity of compounds of the present invention against wild-type Epidermal Growth Factor Receptor (EGFR) was quantified employing the TR-FRET based EGFR assay as described in the following paragraphs.
wild-type Epidermal Growth Factor Receptor (EGFR), sequence (P00533 669-1210): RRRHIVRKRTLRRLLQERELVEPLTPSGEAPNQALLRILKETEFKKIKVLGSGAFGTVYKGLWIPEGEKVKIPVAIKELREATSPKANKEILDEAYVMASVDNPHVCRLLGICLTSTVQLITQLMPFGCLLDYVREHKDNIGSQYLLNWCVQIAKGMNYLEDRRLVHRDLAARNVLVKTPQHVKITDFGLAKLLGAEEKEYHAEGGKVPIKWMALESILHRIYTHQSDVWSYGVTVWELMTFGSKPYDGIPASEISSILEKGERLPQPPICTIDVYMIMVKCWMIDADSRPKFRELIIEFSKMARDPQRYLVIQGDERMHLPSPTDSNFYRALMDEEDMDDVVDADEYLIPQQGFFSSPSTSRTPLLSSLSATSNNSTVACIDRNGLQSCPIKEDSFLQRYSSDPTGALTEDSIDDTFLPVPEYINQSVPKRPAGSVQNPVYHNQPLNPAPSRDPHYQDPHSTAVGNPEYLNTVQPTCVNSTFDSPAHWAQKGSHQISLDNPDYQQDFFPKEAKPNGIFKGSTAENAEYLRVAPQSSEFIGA
Recombinant fusion protein of N-terminal Glutathion-S-Transferase (GST) and a fragment of human EGFR (amino acids R669 to A1210), expressed in Sf9 insect cells and purified via affinity chromatography using Glutathion Sepharose as described above, was used as kinase. As substrate for the kinase reaction the biotinylated peptide biotin-Ahx-AEEEEYFELVAKKK (C-terminus in amide form) was used which can be purchased e.g. form the company Biosynthan GmbH (Berlin-Buch, Germany).
For the assay 50 nl of a 100 fold concentrated solution of the test compound in DMSO was pipetted into either a black low volume 384 well microtiter plate or a black 1536 well microtiter plate (both Greiner Bio-One, Frickenhausen, Germany), 2 μL of a solution of EGFR in aqueous assay buffer [50 mM Hepes pH 7.0, 10 mM MgCl2, 1 mM dithiothreitol, 0.5 mM EGTA, 0.3 mM activated sodium ortho-vanadate, 0.005% (w/v) bovine serum albumin, 0.005% (v/v) Tween-20] were added and the mixture was incubated for 15 min at 22° C. to allow pre-binding of the test compounds to the enzyme before the start of the kinase reaction. Then the kinase reaction was started by the addition of 3 μL of a solution of adenosine-tri-phosphate (ATP, 3.33 mM=>final conc. in the 5 μL assay volume is 2 mM) and substrate (1.67 μM=>final conc. in the 5 μL assay volume is 1 μM) in assay buffer and the resulting mixture was incubated for a reaction time of 30 min at 22° C. The concentration of EGFR was adjusted depending of the activity of the enzyme lot and was chosen appropriate to have the assay in the linear range, typical concentration was 7.6 pg/μL. The reaction was stopped by the addition of 3 μL of a solution of HTRF detection reagents (83.3 nM streptavidine-XL665 [Cisbio Bioassays, Codolet, France] and 1.67 nM PT66-Tb-Cryptate, a terbium-cryptate labelled anti-phospho-tyrosine antibody from Cisbio Bioassays [instead of the PT66-Tb-cryptate PT66-Eu-Chelate from Perkin Elmer can also be used]) in an aqueous EDTA-solution (133.3 mM EDTA, 0.2% (w/v) bovine serum albumin in 50 mM HEPES pH 7.5).
The resulting mixture was incubated 1 h at 22° C. to allow the binding of the biotinylated phosphorylated peptide to the streptavidine-XL665 and the PT66-Tb-Cryptate. Subsequently the amount of phosphorylated substrate was evaluated by measurement of the resonance energy transfer from the PT66-Tb-Cryptate to the streptavidine-XL665. Therefore, the fluorescence emissions at 620 nm and 665 nm after excitation at 337 nm were measured in a HTRF reader, e.g. a Pherastar (BMG Labtechnologies, Offenburg, Germany) or a Viewlux (Perkin-Elmer). The ratio of the emissions at 665 nm and at […] was taken as the measure for the amount of phosphorylated substrate. The data were normalised (enzyme reaction without inhibitor=0% inhibition, all other assay components but no enzyme=100% inhibition).
Turning to `Cc1cn(C)c(=O)c2c(Nc3ccccc3)c(-c3ccnc(NC(=O)C(CC(F)F)c4ccc(F)cc4)c3)[nH]c12` (single isomer, unassigned) [Example 13, N-[4-(3-anilino-5,7-dimethyl-4-oxo-4,5-dihydro-1H-pyrrolo[3,2-c]pyridin-2-yl)pyridin-2-yl]-4,4-difluoro-2-(4-fluorophenyl)butanamide], the IC50 is more than 20 µM.

In the case of `CN1CC(CC(F)(F)F)c2[nH]c(-c3ccnc(NC(=O)Cc4ccc(F)cc4)c3)c(Nc3ccccc3)c2C1=O` (single isomer, unassigned) [Example 15, N-{4-[3-anilino-5-methyl-4-oxo-7-(2,2,2-trifluoroethyl)-4,5,6,7-tetrahydro-1H-pyrrolo[3,2-c]pyridin-2-yl]pyridin-2-yl}-2-(4-fluorophenyl)acetamide], the IC50 stood at 2.9 µM.

For `CN1CC(CC(F)(F)F)c2[nH]c(-c3ccnc(NC(=O)Cc4ccc(F)cc4)c3)c(Nc3ccccc3)c2C1=O` (single isomer, unassigned) [Example 16, N-{4-[3-anilino-5-methyl-4-oxo-7-(2,2,2-trifluoroethyl)-4,5,6,7-tetrahydro-1H-pyrrolo[3,2-c]pyridin-2-yl]pyridin-2-yl}-2-(4-fluorophenyl)acetamide], the IC50 was 1.8 µM.

With `CN1CC(CC2CC2)c2[nH]c(-c3ccnc(NC(=O)Cc4ccc(F)cc4)c3)c(Nc3ccccc3)c2C1=O` (single isomer, unassigned) [Example 19, N-{4-[3-anilino-7-(cyclopropylmethyl)-5-methyl-4-oxo-4,5,6,7-tetrahydro-1H-pyrrolo[3,2-c]pyridin-2-yl]pyridin-2-yl}-2-(4-fluorophenyl)acetamide], the IC50 is 1.8 µM.

For the compound `CN1CC(CC2CC2)c2[nH]c(-c3ccnc(NC(=O)Cc4ccc(F)cc4)c3)c(Nc3ccccc3)c2C1=O` (single isomer, unassigned) [Example 20, N-{4-[3-anilino-7-(cyclopropylmethyl)-5-methyl-4-oxo-4,5,6,7-tetrahydro-1H-pyrrolo[3,2-c]pyridin-2-yl]pyridin-2-yl}-2-(4-fluorophenyl)acetamide], the IC50 is 8 µM.

On to `C[C@H](C(=O)Nc1cc(-c2[nH]c3ccn(C)c(=O)c3c2Nc2ccccc2)ccn1)c1ccc(F)cc1` (single isomer, unassigned) [Example 26], for which the IC50 was more than 20 µM.

For `C[C@@H](C(=O)Nc1cc(-c2[nH]c3ccn(C)c(=O)c3c2Nc2ccccc2)ccn1)c1ccc(F)cc1` (single isomer, unassigned) [Example 27], the IC50 is more than 20 µM.

For the compound `Cn1ccc2[nH]c(-c3ccnc(NC(=O)C(CC(F)F)c4ccc(F)cc4)c3)c(Nc3ccccc3)c2c1=O` (single isomer, unassigned) [Example 29, N-[4-(3-anilino-5-methyl-4-oxo-4,5-dihydro-1H-pyrrolo[3,2-c]pyridin-2-yl)pyridin-2-yl]-4,4-difluoro-2-(4-fluorophenyl)butanamide], the IC50 was more than 20 µM.

Turning to `Cn1ccc2[nH]c(-c3ccnc(NC(=O)C(CC(F)F)c4ccc(F)cc4)c3)c(Nc3ccccc3)c2c1=O` (single isomer, unassigned) [Example 30, N-[4-(3-anilino-5-methyl-4-oxo-4,5-dihydro-1H-pyrrolo[3,2-c]pyridin-2-yl)pyridin-2-yl]-4,4-difluoro-2-(4-fluorophenyl)butanamide], the IC50 is > 20 µM (2×) and 3.9 µM and 5.1 µM and 5.5 µM and 7.2 µM and 15 µM and 10 µM.

Regarding `Cn1cc(CC(F)(F)F)c2[nH]c(-c3ccnc(NC(=O)C(CC(F)F)c4ccc(F)cc4)c3)c(Nc3ccccc3)c2c1=O` (single isomer, unassigned) [Example 36, N-{4-[3-anilino-5-methyl-4-oxo-7-(2,2,2-trifluoroethyl)-4,5-dihydro-1H-pyrrolo[3,2-c]pyridin-2-yl]pyridin-2-yl}-4,4-difluoro-2-(4-fluorophenyl)butanamide], the IC50 amounted to 1.1 µM.

Take `Cn1cc(CC(F)(F)F)c2[nH]c(-c3ccnc(NC(=O)C(CC(F)F)c4ccc(F)cc4)c3)c(Nc3ccccc3)c2c1=O` (single isomer, unassigned) [Example 37, N-{4-[3-anilino-5-methyl-4-oxo-7-(2,2,2-trifluoroethyl)-4,5-dihydro-1H-pyrrolo[3,2-c]pyridin-2-yl]pyridin-2-yl}-4,4-difluoro-2-(4-fluorophenyl)butanamide]: the IC50 worked out at 0.12 µM.

Consider `Cc1cn(C)c(=O)c2c(Nc3ccccc3)c(-c3ccnc(NC(=O)C(C)c4ccc(F)cc4)c3)[nH]c12` (single isomer, unassigned) [Example 40, N-[4-(3-anilino-5,7-dimethyl-4-oxo-4,5-dihydro-1H-pyrrolo[3,2-c]pyridin-2-yl)pyridin-2-yl]-2-(4-fluorophenyl)propanamide], for which the IC50 was determined as 17 µM.

As to `Cc1cn(C)c(=O)c2c(Nc3ccccc3)c(-c3ccnc(NC(=O)C(C)c4ccc(F)cc4)c3)[nH]c12` (single isomer, unassigned) [Example 41, N-[4-(3-anilino-5,7-dimethyl-4-oxo-4,5-dihydro-1H-pyrrolo[3,2-c]pyridin-2-yl)pyridin-2-yl]-2-(4-fluorophenyl)propanamide], the IC50 is 9.1 µM.

Consider `CN1CC(CC(F)F)c2[nH]c(-c3ccnc(NC(=O)Cc4ccc(F)cc4)c3)c(Nc3ccccc3)c2C1=O` (single isomer, unassigned) [Example 43, N-{4-[3-anilino-7-(2,2-difluoroethyl)-5-methyl-4-oxo-4,5,6,7-tetrahydro-1H-pyrrolo[3,2-c]pyridin-2-yl]pyridin-2-yl}-2-(4-fluorophenyl)acetamide], for which the IC50 amounted to 0.41 µM.

Turning to `CN1CC(CC(F)F)c2[nH]c(-c3ccnc(NC(=O)Cc4ccc(F)cc4)c3)c(Nc3ccccc3)c2C1=O` (single isomer, unassigned) [Example 44, N-{4-[3-anilino-7-(2,2-difluoroethyl)-5-methyl-4-oxo-4,5,6,7-tetrahydro-1H-pyrrolo[3,2-c]pyridin-2-yl]pyridin-2-yl}-2-(4-fluorophenyl)acetamide], the IC50 turned out to be 0.49 µM.

For `CN1CC(CC(F)(F)F)c2[nH]c(-c3ccnc(NC(=O)Cc4ccc(F)cc4)c3)c(Nc3cscn3)c2C1=O` (single isomer, unassigned) [Example 47, 2-(4-fluorophenyl)-N-{4-[(7R or S)-5-methyl-4-oxo-3-(1,3-thiazol-4-ylamino)-7-(2,2,2-trifluoroethyl)-4,5,6,7-tetrahydro-1H-pyrrolo[3,2-c]pyridin-2-yl]pyridin-2-yl}acetamide], the IC50 was more than 20 µM.

As to `CN1CC(CC(F)(F)F)c2[nH]c(-c3ccnc(NC(=O)Cc4ccc(F)cc4)c3)c(Nc3cscn3)c2C1=O` (single isomer, unassigned) [Example 48, 2-(4-fluorophenyl)-N-{4-[(7R or S)-5-methyl-4-oxo-3-(1,3-thiazol-4-ylamino)-7-(2,2,2-trifluoroethyl)-4,5,6,7-tetrahydro-1H-pyrrolo[3,2-c]pyridin-2-yl]pyridin-2-yl}acetamide], the IC50 is more than 20 µM.

Consider `CN1CC(CC2CC2)c2[nH]c(-c3ccnc(NC(=O)Cc4ccc(F)cc4)c3)c(Nc3cscn3)c2C1=O` (single isomer, unassigned) [Example 50, N-{4-[(7R or S)-7-(cyclopropylmethyl)-5-methyl-4-oxo-3-(1,3-thiazol-4-ylamino)-4,5,6,7-tetrahydro-1H-pyrrolo[3,2-c]pyridin-2-yl]pyridin-2-yl}-2-(4-fluorophenyl)acetamide], for which the IC50 is more than 20 µM.

`CN1CC(CC2CC2)c2[nH]c(-c3ccnc(NC(=O)Cc4ccc(F)cc4)c3)c(Nc3cscn3)c2C1=O` (single isomer, unassigned) [Example 51, N-{4-[(7R or S)-7-(cyclopropylmethyl)-5-methyl-4-oxo-3-(1,3-thiazol-4-ylamino)-4,5,6,7-tetrahydro-1H-pyrrolo[3,2-c]pyridin-2-yl]pyridin-2-yl}-2-(4-fluorophenyl)acetamide]: the IC50 is 17.2 µM and > 20 µM.
